Reference: BindingDB's records for doi:10.1021/acs.jmedchem.6b00608 (Chinese Academy of Sciences, 2016)

Biological target: T1, Tyrosine-protein kinase receptor UFO (Homo sapiens, UniProt P30530)
T1 sequence (P30530 whole entry): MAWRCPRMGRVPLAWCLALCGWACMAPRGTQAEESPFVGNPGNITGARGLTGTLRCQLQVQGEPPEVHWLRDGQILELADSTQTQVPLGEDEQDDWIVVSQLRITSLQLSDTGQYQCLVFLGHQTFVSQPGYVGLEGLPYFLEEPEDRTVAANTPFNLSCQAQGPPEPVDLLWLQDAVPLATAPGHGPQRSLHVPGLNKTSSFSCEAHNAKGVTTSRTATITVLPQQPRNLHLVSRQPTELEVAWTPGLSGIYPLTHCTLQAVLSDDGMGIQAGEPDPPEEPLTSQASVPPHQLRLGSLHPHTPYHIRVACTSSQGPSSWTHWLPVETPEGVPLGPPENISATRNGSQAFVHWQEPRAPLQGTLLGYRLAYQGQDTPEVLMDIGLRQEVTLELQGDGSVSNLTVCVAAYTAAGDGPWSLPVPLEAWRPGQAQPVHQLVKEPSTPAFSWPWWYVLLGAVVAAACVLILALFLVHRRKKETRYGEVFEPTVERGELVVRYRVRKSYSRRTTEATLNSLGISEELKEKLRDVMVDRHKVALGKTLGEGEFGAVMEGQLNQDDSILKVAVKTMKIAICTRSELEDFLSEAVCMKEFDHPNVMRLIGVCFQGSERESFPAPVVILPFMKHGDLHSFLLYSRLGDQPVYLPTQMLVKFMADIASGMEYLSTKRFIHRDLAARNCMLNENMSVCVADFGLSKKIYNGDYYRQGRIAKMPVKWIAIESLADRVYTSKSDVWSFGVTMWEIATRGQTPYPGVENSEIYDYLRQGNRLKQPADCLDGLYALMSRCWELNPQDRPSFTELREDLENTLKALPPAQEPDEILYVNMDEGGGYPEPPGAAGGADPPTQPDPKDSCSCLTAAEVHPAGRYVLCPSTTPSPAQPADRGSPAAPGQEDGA
Assay: Inhibition of human recombinant AXL incubated for 1 to 1.5 hrs by FRET based Z'-Lyte kinase assay

IC50 | Structure (SMILES)
> 10 µM | Cc1c(C(=O)Nc2ccc(Oc3ncnc4[nH]cc(-c5ccccc5)c34)c(F)c2)c(=O)c2cc(F)ccc2n1C
> 10 µM | Cc1c(C(=O)Nc2ccc(Oc3ncnc4[nH]cc(-c5ccccc5)c34)c(F)c2)c(=O)c2cc3ccccc3cc2n1C
> 10 µM | Cc1c(C(=O)Nc2ccc(Oc3ncnc4[nH]cc(-c5ccccc5)c34)c(F)c2)c(=O)c2cc(-c3ccccc3)ccc2n1C
